Measured values: patent EP2272817A1, “PAI-1 INHIBITOR” (Institute of Medicinal Molecular Design, Inc., priority 2008, dated 2009)

Target: recombinant human PAI-1 (Homo sapiens, UniProt P05121)
Test: Test Example 2: Human PAI-1 Inhibitory Activity (pH 7.4 HEPES buffer, 10 minutes incubation with two-chain tPA)
Type: biochemical
Set-up: purchased Molecular Innovations, Inc
Settings: for inhibition at 1 µM / inhibition at 3 µM / inhibition at 10 µM / inhibition at 25 µM / inhibition at 0.1 µM / inhibition at 0.3 µM: read-out: Inhibition Rate of PAI-1 Activity (%)
Description: 0.1 M HEPES, 0.1 M NaCl. 1 mM EDTA. 0.1 % Polyethylene glycol 8,000 (Hampton Research Corporation),
2 mM Dimethyldecylphoshine oxide [Apo-10] (Fluka Corporation)

Chain of recombinant human PAI-1 (P05121 24-402): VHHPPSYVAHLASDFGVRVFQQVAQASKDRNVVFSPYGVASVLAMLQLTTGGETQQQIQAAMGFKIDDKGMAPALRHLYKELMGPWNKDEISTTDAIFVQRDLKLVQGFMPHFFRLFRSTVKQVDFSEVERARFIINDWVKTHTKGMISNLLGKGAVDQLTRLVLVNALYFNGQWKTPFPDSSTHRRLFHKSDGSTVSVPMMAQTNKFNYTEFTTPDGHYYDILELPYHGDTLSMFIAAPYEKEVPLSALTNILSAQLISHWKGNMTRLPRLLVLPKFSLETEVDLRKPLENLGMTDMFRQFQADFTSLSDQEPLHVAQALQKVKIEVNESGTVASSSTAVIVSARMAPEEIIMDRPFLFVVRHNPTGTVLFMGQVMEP

CC(C)(C)c1ccc(CN(C(=O)C(=O)O)c2ccc(N3CCN(c4ccccc4)CC3)cc2)cc1 [Compound 627]
inhibition at 1 µM: 0%
inhibition at 3 µM: 14%
inhibition at 10 µM: 57%
inhibition at 25 µM: > 99%

CC(C)(C)c1ccc(CCc2cc(-c3ccc(OC(F)(F)F)cc3)ccc2OCC(=O)O)cc1 [Compound 551]
inhibition at 0.1 µM: 0%
inhibition at 0.3 µM: 4%
inhibition at 1 µM: 92%
inhibition at 3 µM: > 99%

CCCCCOc1cc(-c2ccc(OC(F)(F)F)cc2)cc(OCc2ccc(C(C)(C)C)cc2)c1OCC(=O)O [Compound 301]
inhibition at 0.1 µM: 15%
inhibition at 0.3 µM: 25%
inhibition at 1 µM: 96%
inhibition at 3 µM: 97%

CC(C)(C)c1ccc(-c2ccc(OCC(=O)O)c(Oc3cccc(C(C)(C)C)c3)c2)cc1 [Compound 465]
inhibition at 0.1 µM: 10%
inhibition at 0.3 µM: 17%
inhibition at 1 µM: 87%
inhibition at 3 µM: 98%

CC(C)(C)[C@H]1CC[C@@H](CN(C(=O)C(=O)O)c2ccc(-c3ccc(OC(F)(F)F)cc3)cc2)CC1 [Compound 680]
inhibition at 0.1 µM: 7%
inhibition at 0.3 µM: 9%
inhibition at 1 µM: 77%
inhibition at 3 µM: > 99%

CC(C)(C)c1ccc(Oc2cc(-c3cc(Cl)ccc3Cl)ccc2CCC(=O)O)cc1 [Compound 484]
inhibition at 0.1 µM: 0%
inhibition at 0.3 µM: 7%
inhibition at 1 µM: 73%
inhibition at 3 µM: > 99%

CC(C)(C)c1ccc(Oc2cc(-c3ccccc3OC(F)(F)F)ccc2OCC(=O)O)cc1 [Compound 456]
inhibition at 0.1 µM: 7%
inhibition at 0.3 µM: 13%
inhibition at 1 µM: 70%
inhibition at 3 µM: 98%

CC(C)c1ccc(-c2ccc(/C=C/C(=O)O)c(Oc3ccc(C(C)(C)C)cc3)c2)cc1 [Compound 518]
inhibition at 0.1 µM: 14%
inhibition at 0.3 µM: 54%
inhibition at 1 µM: > 99%
inhibition at 3 µM: > 99%

CC(C)(C)c1ccc(COc2ccc(N3CCN(c4ccc(OC(F)(F)F)cc4)CC3)cc2/C=C/C(=O)O)cc1 [Compound 418]
inhibition at 1 µM: 73%
inhibition at 3 µM: 95%
inhibition at 10 µM: 94%
inhibition at 25 µM: 90%

CCCCC(Oc1cc(-c2cccc(C(F)(F)F)c2)ccc1Oc1ccc(C(C)(C)C)cc1)C(=O)O (stereo not shown) [Compound 318]
inhibition at 0.1 µM: 8%
inhibition at 0.3 µM: 20%
inhibition at 1 µM: 90%
inhibition at 3 µM: > 99%

CC(C)(C)c1ccc(COc2ccc(-c3ccc(OC(F)(F)F)cc3)cc2C(=O)O)cc1 [Compound 421]
inhibition at 0.1 µM: 0%
inhibition at 0.3 µM: 3%
inhibition at 1 µM: 14%
inhibition at 3 µM: 81%

CC(C)[C@@H]1CC[C@@H](C)C[C@H]1Oc1ccc(-c2ccc(OC(F)(F)F)cc2)cc1N(CCCCc1ccccc1)C(=O)C(=O)O [Compound 639]
inhibition at 0.1 µM: 6%
inhibition at 0.3 µM: 12%
inhibition at 1 µM: 91%
inhibition at 3 µM: 87%

CC(C)(C)c1ccc(Oc2cc(-c3ccc4ccccc4c3)ccc2CCC(=O)O)cc1 [Compound 470]
inhibition at 0.1 µM: 3%
inhibition at 0.3 µM: 16%
inhibition at 1 µM: 87%
inhibition at 3 µM: > 99%

CC(C)(C)c1cccc(Oc2cc(-c3ccc(OC(F)(F)F)cc3)ccc2CCC(=O)O)c1 [Compound 336]
inhibition at 0.1 µM: 0%
inhibition at 0.3 µM: 5%
inhibition at 1 µM: 45%
inhibition at 3 µM: > 99%

CCCCCOc1cc(-c2ccc(OC(F)(F)F)cc2)cc(OCCCCC)c1OCC(=O)O [Compound 424]
inhibition at 0.1 µM: 0%
inhibition at 0.3 µM: 4%
inhibition at 1 µM: 38%
inhibition at 3 µM: > 99%

CCCCCOc1ccc(-c2ccc(OC(F)(F)F)cc2)cc1N(CCCOc1ccccc1)C(=O)C(=O)O [Compound 356]
inhibition at 0.1 µM: 7%
inhibition at 0.3 µM: 13%
inhibition at 1 µM: 53%
inhibition at 3 µM: > 99%

CCCCCN(C(=O)C(=O)O)c1cc(-c2ccc(OC(F)(F)F)cc2)ccc1OCCCCc1ccccc1 [Compound 358]
inhibition at 0.1 µM: 0%
inhibition at 0.3 µM: 10%
inhibition at 1 µM: 55%
inhibition at 3 µM: 98%

CC(C)c1ccc(-c2ccc(OCC(=O)O)c(Oc3ccc(C(C)(C)C)cc3)c2)cc1 [Compound 441]
inhibition at 0.1 µM: 9%
inhibition at 0.3 µM: 29%
inhibition at 1 µM: 89%
inhibition at 3 µM: 98%

Cc1cc(C)cc(COc2ccc(-c3ccc(OC(F)(F)F)cc3)cc2N(CCCCc2ccccc2)C(=O)C(=O)O)c1 [Compound 662]
inhibition at 0.1 µM: 18%
inhibition at 0.3 µM: 28%
inhibition at 1 µM: 98%
inhibition at 3 µM: 95%

CCCCCOc1cc(-c2ccc(OC(F)(F)F)cc2)ccc1N(CCCCc1ccccc1)C(=O)C(=O)O [Compound 367]
inhibition at 0.1 µM: 10%
inhibition at 0.3 µM: 26%
inhibition at 1 µM: 52%
inhibition at 3 µM: 94%

CC(C)(C)Oc1ccc(-c2ccc(OC(F)(F)F)cc2)cc1N(CCCCc1ccccc1)C(=O)C(=O)O [Compound 373]
inhibition at 0.1 µM: 0%
inhibition at 0.3 µM: 0%
inhibition at 1 µM: 28%
inhibition at 3 µM: 90%

O=C(O)C(=O)N(CCCCc1ccccc1)c1cc(-c2ccc(OC(F)(F)F)cc2)ccc1OCCCCC(F)(F)F [Compound 381]
inhibition at 0.1 µM: 12%
inhibition at 0.3 µM: 13%
inhibition at 1 µM: 48%
inhibition at 3 µM: > 99%

CCCCC(Oc1cc(-c2ccc(OC(F)(F)F)cc2)ccc1Oc1ccccc1)C(=O)O (stereo not shown) [Compound 307]
inhibition at 0.1 µM: 0%
inhibition at 0.3 µM: 1%
inhibition at 1 µM: 22%
inhibition at 3 µM: 91%

O=C(O)/C=C/c1ccc(-c2ccc(OC(F)(F)F)cc2)cc1OCCCOCc1ccccc1 [Compound 487]
inhibition at 0.1 µM: 0%
inhibition at 0.3 µM: 3%
inhibition at 1 µM: 26%
inhibition at 3 µM: 98%

CC(C)(C)c1ccc(Oc2cc(-c3ccc(OC(F)(F)F)cc3)ccc2CCCC(=O)O)cc1 [Compound 527]
inhibition at 0.1 µM: 6%
inhibition at 0.3 µM: 36%
inhibition at 1 µM: 98%
inhibition at 3 µM: > 99%

CCCCN(CC(=O)O)c1ccc(-c2ccc(OC(F)(F)F)cc2)cc1Oc1ccc(C(C)(C)C)cc1 [Compound 533]
inhibition at 0.1 µM: 25%
inhibition at 0.3 µM: 83%
inhibition at 1 µM: 97%
inhibition at 3 µM: 97%

CCCCC(Oc1cc(Oc2ccc(OC(F)(F)F)cc2)ccc1Oc1ccc(C(C)(C)C)cc1)C(=O)O (stereo not shown) [Compound 312]
inhibition at 0.1 µM: 17%
inhibition at 0.3 µM: 24%
inhibition at 1 µM: 87%
inhibition at 3 µM: 94%

O=C(O)C(=O)N(CCCCc1ccccc1)c1cc(-c2ccc(OC(F)(F)F)cc2)ccc1OCCCCCO [Compound 676]
inhibition at 0.1 µM: 7%
inhibition at 0.3 µM: 4%
inhibition at 1 µM: 60%
inhibition at 3 µM: > 99%

CC(C)(C)c1ccc(Oc2cc(-c3cccc([N+](=O)[O-])c3)ccc2OCC(=O)O)cc1 [Compound 485]
inhibition at 0.1 µM: 0%
inhibition at 0.3 µM: 6%
inhibition at 1 µM: 11%
inhibition at 3 µM: 69%

CCCCCOc1ccc(-c2ccccc2)cc1N(CCCCc1ccccc1)C(=O)C(=O)O [Compound 360]
inhibition at 0.1 µM: 5%
inhibition at 0.3 µM: 8%
inhibition at 1 µM: 35%
inhibition at 3 µM: 92%

CC(C)(C)c1ccc(Oc2ccc(-c3ccc(C(F)(F)F)cc3)cc2OCC(=O)O)cc1 [Compound 328]
IC50 (human PAI-1, calculated from the inhibition rates): 1460 nM
inhibition at 0.1 µM: 0%
inhibition at 0.3 µM: 14%
inhibition at 1 µM: 30%
inhibition at 3 µM: > 99%

CC(C)c1ccccc1Oc1cc(-c2ccc(OC(F)(F)F)cc2)ccc1CCC(=O)O [Compound 491]
inhibition at 0.1 µM: 6%
inhibition at 0.3 µM: 10%
inhibition at 1 µM: 66%
inhibition at 3 µM: > 99%

CCCCC(Oc1cc(Oc2ccc(C(C)(C)C)cc2)cc(-c2ccc(OC(F)(F)F)cc2)c1)C(=O)O (stereo not shown) [Compound 426]
inhibition at 0.1 µM: 10%
inhibition at 0.3 µM: 29%
inhibition at 1 µM: 95%
inhibition at 3 µM: 97%

CC(C)(C)OCCOc1ccc(-c2ccc(OC(F)(F)F)cc2)cc1N(CCCCc1ccccc1)C(=O)C(=O)O [Compound 351]
inhibition at 0.1 µM: 2%
inhibition at 0.3 µM: 7%
inhibition at 1 µM: 23%
inhibition at 3 µM: 84%

CCCCCOc1ccc(-c2ccc(OC(F)(F)F)cc2)cc1N(CCCCc1ccc(F)cc1)C(=O)C(=O)O [Compound 382]
inhibition at 0.1 µM: 13%
inhibition at 0.3 µM: 12%
inhibition at 1 µM: 84%
inhibition at 3 µM: 97%

CC(C)(C)c1ccc(Oc2cc(-c3cccc(OC(F)(F)F)c3)ccc2OCC(=O)O)cc1 [Compound 331]
inhibition at 0.1 µM: 2%
inhibition at 0.3 µM: 1%
inhibition at 1 µM: 83%
inhibition at 3 µM: 98%

CC(C)(C)c1cccc(Oc2ccc(-c3ccc(OC(F)(F)F)cc3)cc2OCC(=O)O)c1 [Compound 439]
inhibition at 0.1 µM: 12%
inhibition at 0.3 µM: 9%
inhibition at 1 µM: 44%
inhibition at 3 µM: > 99%

CC(C)(C)c1ccc(COc2ccc(NS(=O)(=O)c3ccc(OC(F)(F)F)cc3)cc2CCC(=O)O)cc1 [Compound 415]
inhibition at 1 µM: 41%
inhibition at 3 µM: 98%
inhibition at 10 µM: > 99%
inhibition at 25 µM: > 99%

CC(C)(C)c1ccc(Oc2cc(-c3cccc(OC(F)(F)F)c3)ccc2/C=C/C(=O)O)cc1 [Compound 503]
inhibition at 0.1 µM: 13%
inhibition at 0.3 µM: 27%
inhibition at 1 µM: 97%
inhibition at 3 µM: 93%

O=C(O)C(=O)N(CCCCc1ccccc1)c1cc(-c2ccc(OC(F)(F)F)cc2)ccc1OCCCCc1ccccc1 [Compound 354]
inhibition at 0.1 µM: 5%
inhibition at 0.3 µM: 10%
inhibition at 1 µM: 91%
inhibition at 3 µM: 89%

CCCCCCCCCOc1cc(N(Cc2ccc(C(C)(C)C)cc2)C(=O)C(=O)O)ccc1-c1ccc(OC(F)(F)F)cc1 [Compound 388]
inhibition at 0.1 µM: 75%
inhibition at 0.3 µM: > 99%
inhibition at 1 µM: > 99%
inhibition at 3 µM: > 99%

CC(Oc1cc(-c2ccc(OC(F)(F)F)cc2)ccc1CCC(=O)O)c1ccccc1 (stereo not shown) [Compound 501]
inhibition at 0.1 µM: 12%
inhibition at 0.3 µM: 0%
inhibition at 1 µM: 12%
inhibition at 3 µM: 83%
